Assay results as given in patent US20060183797A1, “Fatty alcohols and fatty acid esters useful for treatment of inflammation” (priority 2001, published 2006).
“And” between values parts separate entries of the source, which are not always exact repeats. Identical values can stand only once.

Legend:
Format in all cases: in vivo
[1] = system: adjuvant arthritis (AA); test: Adjuvant arthritis (AA) in Lewis rats, inhibition of inflammation; conditions: for % Inhibition (100 μl) of the inflammation of adjuvant arthritis: 100 μl SC once, 14 days before induction of AA or on day 12 after induction, day of maximal inflammation
Protocol: AA was induced by immunizing inbred 8-10-week old Lewis rats (Harlan-Olac Limited, Blackthorn, Oxon, UK), at the base of the tail with 1 mg/0.1 ml of killed Mycobacterium tuberculosis (Sigma) in IFA (Sigma) as described (Pearson, 1956). Arthritis of the limbs was noted to develop 12-14 days later and was scored on a scale of 0-16 summing the severity of the inflammation of each of the 4 limbs on a scale of 0-4, as described (Holoshitz et al., 1983). The peak of the arthritis usually was observed around day 26 after immunization.
Control rats were untreated or treated by injections of saline. A positive control of immunosuppression was obtained by including a group of rats treated with the corticosteroid agent dexamethasone (200 μg) administered intraperitoneally every other day beginning on day 12 after induction.
The immunomodulator of the invention (100 μl oleyl alcohol, glycerol mono-oleate, linolenyl alcohol or cetyl alcohol) was administered subcutaneously (SC) once 14 days before induction of AA or on day 12 after induction of AA. The percent inhibition of inflammation measured on the day of maximal inflammation was computed as follows: [formula] […]

[2] = system: adjuvant arthritis (AA); test: as above; conditions: for suppression of inflammation on day of peak disease: day 26
[3] = system: experimental autoimmune encephalomyelitis (EAE); test: Experimental autoimmune encephalomyelitis (EAE) in Lewis rats; conditions: 0.5 ml/kg SC once, 14 days before EAE induction
[4] = vs non-treated control, listed as OA

`CCCCCCCCCCCCCCCCO` [Cetyl alcohol, cetyl alcohol] was tested, and the “% Inhibition (100 μl) of the inflammation of adjuvant arthritis” value (from here on “% Inhibition (100 μl)”) [1] was 66%.

In the case of `CCCCCCCC/C=C\CCCCCCCC(=O)OCC(O)CO` (stereo not drawn) [Glycerol mono-oleate, glycerol monooleate], the “% Inhibition (100 μl)” value [1] was 98%.

With `CCC=CCC=CC/C=C\CCCCCCCCO` [Linolenyl alcohol, cis-9,12,15-octadecatrienol] the “% Inhibition (100 μl)” value [1] was 75%.

With `CCCCCCCC/C=C\CCCCCCCCO` [Oleyl alcohol, cis-9-octadecenol] the “suppression of inflammation on day of peak disease” value (shortened to “suppression … of peak disease”) ([2]; 10 μl SC once 14 days before induction) was 14%, the “suppression … of peak disease” value ([2]; 50 μl SC once 14 days before induction) was 61% and the “suppression … of peak disease” value ([2]; 100 μl SC once 14 days before induction) was 78%. For the same molecule, the “suppression … of peak disease” value ([2]; 500 μl SC once 14 days before induction) was 90%, the suppression of inflammation ([2]; 500 μl, two further experiments) was 96% and 91% and the “% Incidence of disease” value [3] was 50.0%. For the same molecule, the “effect on EAE clinical parameters (in words)” value [3] was “beneficial effect on all the clinical parameters”, the “Mean Onset of disease (Day No.)” value ([3]; rats without EAE counted as 25 days) was 18.6 Day No and the “Disease duration” value ([3]; rats without EAE counted as zero) was 2.0 days. For the same molecule, the “GMS (group mean score)” value ([3]; scale 0-5) was 0.22, the “MMS (mean maximal score)” value ([3]; scale 0-5) was 0.88 and the “% Activity GMS” value ([3]; vs non-treated control) was 77.1%. For the same molecule, the “% Activity Incidence” value ([3]; vs non-treated control) was 33.3%, the “% Activity MMS” value ([3]; vs non-treated control) was 63% and the “% Activity GMS” value [3, 4] was 77.1%. The “% Activity MMS” value [3, 4] was 63.0% and the “% Inhibition (100 μl)” value [1] was 78%.

`CCCCCCCC/C=C\CCCCCCCC(=O)O` [oleic acid, cis-9-octadecenoic acid, reference compound] was tested, and the “effect on inflammation of adjuvant arthritis (in words)” value ([1]; Lewis rats, Example 1) was “no effect”.
